Results on 2 molecules are retold here after patent US4001327A, “Novel quaternary salts and method” (The Regents of the University of Michigan, priority 1973, dated 1977).

The conditions of data set [1]: described by Lucchesi et al. 1968; undesirable side-effect of prior art compound; cited from earlier work.
Data set [2] deals with mongrel dogs. Kind of data set: Epicardial ST segment elevation (ΣST) after 10-minute coronary artery branch occlusion in anesthetized dogs. It is filed as in vivo, dog. Particulars: 10 mg./kg. intravenously 15 minutes prior to the second 10-minute occlusion; control ΣST 34.8 ± 4.9 mV. The method, then: A group of 10 mongrel dogs, weighing 11-19 kg., is anesthetized by the intravenous administration of 30 mg./kg. of pentobarbital sodium and breathing maintained by means of a Harvard respirator. A thoractomy is performed through the fifth left intercostal space; the heart is suspended in a pericardial cradle; a branch of the left anterior descending coronary artery is dissected free and a suture placed under that vessel. Occlusion of that arterial branch is accomplished by passing the free ends of the suture through a short section of polyethylene tubing and pressing the tubing against the vessel while exerting traction on the free ends of the suture. Termination of the occlusion is achieved by releasing the suture and pulling the tube away from the vessel.
The degree of myocardial ischemic injury resulting from occlusion of the artery is determined by the epicardial electrocardiographic method described by Maroko et al., Circulation, 43, 67-82 (1971). […] All surface collateral vessels are ligated and the unipolar electrograms from the six epicardial leads and the Lead II electrocardiogram are recorded on a Grass model 7 polygraph. […]
The reproducibility of the method with respect to the magnitude of ΣST is determined by successive 10-minute occlusions in a group of five dogs. […]

Data set [3] concerns mongrel dogs. Kind of data set: Myocardial oxygen consumption, left coronary arteries perfused with arterial blood at constant pressure, anesthetized dogs. It is filed as in vivo, dog. Particulars: 10 mg./kg. intravenously prior to perfusion; 5 dogs; mean control 11.7 ± 1.9; statistically significant (p<0.05) reduction. The method, then: A group of 5 mongrel dogs is anesthetized and thoractomized by the procedure described in the preceding assay and the left anterior descending and circumflex coronary arteries are cannulated and perfused with arterial blood at a constant pressure. Coronary arterial and venous blood samples are collected and their oxygen content measured. Myocardial oxygen consumption is calculated and expressed as ml./min./100 g. of the left ventricle. the mean control oxygen consumption in these 5 animals is 11.7 ± 1.9.
In a second group of 5 animals, prepared as described above, the selected dose of the test compound is administered intravenously prior to perfusion. The myocardial oxygen consumption is calculated and compared with the corresponding value in the control group. A compound is rated active if it effects a statistically significant reduction in the myocardial oxygen consumption observed in the control group.

Data set [4] deals with excised hearts perfused by donor dog. Kind of data set: Oxygen consumption of excised hearts perfused with whole blood from a donor dog. It is filed as in vivo. Particulars: 10 mg./kg. intravenously to 5 donor dogs; value before treatment 3.1 ± 0.2; statistically significant (p<0.01) reduction. The method, then: In a separate assay, hearts are excised from anesthetized animals and perfused via the aorta at a constant pressure with oxygenated whole blood supplied by a donor dog connected to the heart. Oxygen consumption is calculated and expressed as ml./min./100 g. of the myocardium. The donor dogs are then treated intravenously with the selected dose of the test compound and the mean oxygen consumption value again calculated. The test compound is rated active if it effects a statistically significant reduction in that value.

As to `CC[N+](C)(CC)CC(O)COc1cccc2ccccc12` (stereo not shown) [1-(N,N-diethylamino)-3-(1-naphthoxy)propan-2-ol methiodide], in data set [1], the local anesthetic activity entry is listed as “local anesthetic activity”.
As to `CC(C)[N+](C)(C)CC(O)COc1cccc2ccccc12` (stereo not shown) [1-(N-isopropyl-N-methylamino)-3-(1-naphthoxy)propan-2-ol methochloride], the “sum of the ST segment elevation in the six epicardial leads (ΣST)” value in the data set on mongrel dogs [2] came out at 11.3 ± 2.1 mV. In addition, the myocardial oxygen consumption in the data set on mongrel dogs [3] is on record as 7.6 ± 1.1 ml./min./100 g. of the left ve. Also, the “mean oxygen consumption value” in data set [4] is reported as 2.1 ± 0.1 ml./min./100 g. of the myocard.
